Assay results: patent publication US20090075867A1, “Triazine compounds and compositions thereof for the treatment of cancers” (priority 2005, published 2009)
Like-named read-outs stand apart in the source and are kept apart here.

Columns and labels:
[1] = test system: PC-3, human prostate carcinoma cell; assay: In vitro cytotoxicity (MTT) on PC-3; format: cell-based
Method: (§1) This assay was performed to determine the effect of compounds of the present invention on cell cytotoxicity. Cells were incubated in presence or absence of compounds in their respective conditioned media. […] The supernatant was discarded and 100 μl of dimethylsulfoxide (DMSO) was added. Absorbance was read at […] with an ELISA Tecan SUNRISE™ plate reader. The control group consisted of cells without compounds and is referred to as 100% of viable cells. IC50 was determined using PRISM® software.
(§2) The predictive utility of cell-based cytotoxicity assays to assess the potential in vivo anticancer activity of compounds with selected cancer cell lines is well established in the art and the use of whole cells, instead of isolated protein receptors or enzymes, provides a more reliable determination of activity. See, for example, Paull et al. J. Natl. Cancer Inst. 81:1088-1092 (1989); Monks et al. J. Natl. Cancer Inst. 83:757-766 (1991); Bandes et al. J. Natl. Cancer Inst. 86:770-775 (1994); and Kamate et al. Intl. J. Cancer 100:571-579 (2002).

B16F10 primary tumors = assay: Antitumor effects on a primary B16F10 melanoma tumor; format: in vivo, C57BL/6 mice; conditions: 50 mg/kg i.v. on day 14, 16 and 18
Method: Female 6-8 week old C57BL/6 mice were injected intradermally on day 0 with 3.75×10^4 B16F10 melanoma cells from ATCC (source of cell culture, Dr. I. J. Fidler). On day 14, tumors reached […] and animals were randomized for treatments. Animals were then injected i.v. with saline (negative control) or compounds (50 mg/kg) on day 14, 16 and 18 or 10 mg/kg doxorubicin (Dox, positive control) on day 14. Mice were sacrificed on day 29. Body weight and tumor volume were recorded. Serial tumor volume was obtained by bi-dimensional diameter measurements with calipers, using the formula 0.4 (a×b^2) where “a” was the major tumor diameter and “b” the minor perpendicular diameter.
T/C is calculated as (Treated tumor volume/Control tumor volume)×100%. Compound 2 induced a weak reduction (T/C around 70%) of the tumor volume compared to the control.

B16F10 lung metastases = format: in vivo; conditions: for inhibition of the number of tumor nodules in lungs: FIG. 3, 50 mg/kg i.v. on day -3, -2, -1, 3, 5 and 7, p<0.001; for reduction of the number of tumor nodules: FIG. 4
Method: Female 6-8-week old C57BL/6 mice were injected intravenously on day 0 with 1-2.5×10^5 B16F10 melanoma cells from ATCC (source of cell culture, Dr. I. J. Fidler). B16F10 melanoma cells are a highly metastatic cell line which preferentially forms nodules in the lungs. Cells were cultured in DMEM supplemented with 10% fetal bovine serum. […] Fourteen days after inoculation, mice were sacrificed and their lungs were removed, rinsed in PBS, and placed in Bouin's fixative. The number of metastatic nodules (black colonies) on the surface of the lungs were counted.

[2] = test system: NHDF, Normal Human Dermal Fibroblast; assay: In vitro cytotoxicity (MTT) on NHDF; format: cell-based
Method: as §1, §2

[3] = test system: P815, murine mastocytoma cell; assay: In vitro cytotoxicity (MTT) on P815; format: cell-based; conditions: Mus musculus
Method: as §1, §2

DA-3 breast tumors = assay: Antitumor effects on a primary DA-3 breast tumor; format: in vivo, BALB/c mice
Method: (§3) The syngeneic tumor DMBA3 (DA-3, breast carcinoma model) arose from a preneoplastic lesion treated with 7,12-dimethylbenzanthracene in female BALB/c mice. DA-3 cells were grown as monolayer cultures in plastic flasks in RPMI-1640 containing 0.1 mM nonessential amino acids, 0.1 μM sodium pyruvate, 2 mM L-glutamine. This was further supplemented with 50 μM 2-mercaptoethanol and 10% fetal bovine serum. The DA-3 tumors were serially passage in vivo by intradermal inoculation of 5×10^5 viable tumor cells to produce localized tumors in 6- to 8-week old BALB/c mice. The animals were then serially monitored by manual palpation for evidence of tumor. Mice were treated at day 11, 18 and 25 with cyclophosphamide (100 mg/kg) and at day 11, 12, 13, 15, 18, 20, 22, 25, 27 and 29 with compound 1, 2, 3 or 8 (50 mg/kg). Mice were sacrificed at day 43. Serial tumor volume was obtained by bi-dimensional diameter measurements with calipers, using the formula 0.4 (a×b^2) where “a” was the major tumor diameter and “b” the minor perpendicular diameter. […] The National Cancer Institute (USA) defines the product as effective if T/C is ≦40%.
In other trials, mice were treated with one intratumoral injection of compound 2 or cyclophosphamide (three doses) or intratumoral injection of compound 2 in combination with cyclophosphamide.

[4] = test system: B16F10, murine melanoma cell; assay: In vitro cytotoxicity (MTT) on B16F10; format: cell-based; conditions: Mus musculus, B16-F10
Method: as §1, §2

[5] = test system: CAKI-2, human kidney cell; assay: In vitro cytotoxicity (MTT) on CAKI-2; format: cell-based
Method: as §1, §2

DA-3 = assay: In vitro cytotoxicity (MTT) on DA-3; format: cell-based, BALB/c mice; conditions: Mus musculus
Method: as §1, §2, §3

Hep-G2, human liver cell = assay: In vitro cytotoxicity (MTT) on Hep-G2; format: cell-based
Method: as §1, §2

[6] = test system: PBML, Peripheral Blood Mononuclear Leukocytes; assay: In vitro cytotoxicity (MTT) on PBML; format: cell-based; conditions: Leukocyte
Method: as §1, §2

[7] = FIG. 8, combination of cyclophosphamide and intratumoral injection of compound 2

SMILES | IC50 ([1]; 24-hour cell culture) [µM] | IC50 ([1]; 72-hour cell culture) [µM] | inhibition of the number of tumor nodules in lungs (B16F10 lung metastases) | IC50 ([2]; 24-hour cell culture) [µM] | IC50 ([2]; 72-hour cell culture) [µM] | IC50 ([3]; 24-hour cell culture) [µM] | IC50 ([3]; 72-hour cell culture) [µM] | IC50 ([4]; 24-hour cell culture) [µM] | IC50 (DA-3; 24-hour cell culture) [µM] | IC50 ([6]; 24-hour cell culture) [µM] | IC50 ([6]; 72-hour cell culture) [µM] | further results
Nc1ccc(CCNc2nc(Nc3ccc(CCNc4nc(NCCO)nc(Nc5cccc(N)c5)n4)cc3)nc(Nc3cccc(N)c3)n2)cc1 [Compound 2] | 2.3 | 4 | significant inhibition | > 100 | 16 | 66.5 | 2.2 | 1 | 2 | > 100 | 10 | T/C (Treated tumor volume/Control tumor volume) (B16F10 primary tumors; FIG. 1 trial): around 70%; reduction of the number of tumor nodules (B16F10 lung metastases; compound 2 in combination with doxorubicin (1 mg/kg)): 95%; reduction of the number of tumor nodules (B16F10 lung metastases; used alone, compound 50 mg/kg i.v., doxorubicin 1 mg/kg): 87%; T/C, inhibition of tumor volume (DA-3 breast tumors; [7]): 10%; total tumor regressions at day 46 (DA-3 breast tumors; [7]): four; total tumor regression at day 46 (DA-3 breast tumors; FIG. 8, one intratumoral injection of compound 2 alone): one; IC50 ([4]; 72-hour cell culture): 1 µM; IC50 ([5]; 24-hour cell culture): > 40 µM; IC50 ([5]; 72-hour cell culture): > 40 µM; IC50 (DA-3; 72-hour cell culture): 1.9 µM; IC50 (Hep-G2, human liver cell; HepG2, 24-hour cell culture): > 40 µM; IC50 (Hep-G2, human liver cell; HepG2, 72-hour cell culture): > 40 µM
Nc1ccc(CCNc2nc(NCCCCO)nc(Nc3cccc(N)c3)n2)cc1 [Compound 8] | 94 | 100 | significant inhibition | > 100 | > 100 | > 100 | 92 | 33 | 85 | > 100 | > 100 | T/C (Treated tumor volume/Control tumor volume) (B16F10 primary tumors; FIG. 2 trial): around 70%; inhibition of the tumor volume (DA-3 breast tumors; FIG. 6, 50 mg/kg): All compounds except compound 8 induced a significant inhibition
